Where “and” joins values, the source holds several entries; their conditions need not be identical. Equal values may be shown once.
System: 624824-186-R-J2-PDC multicell spheroids, viability
Assay: Anticancer human tumor 624824-186-R-J2-PDC patient-derived colon adenocarcinoma cell line growth inhibition [PI3K]
Conditions: for viability, T/C: stronger effect = lower value
Excerpt: Combinatorial screen of targeted agents with the PI3K inhibitors inavolisib, alpelisib, duvelisib, and copanlisib in multi-cell type tumor spheroids
A high-throughput screen of multi-cell type tumor spheroids was designed to identify active combinations of targeted small molecules and PI3K pathway inhibitors. Complex spheroids include a stromal component modeled by human endothelial cells (HUVEC) and fibroblasts modeled by human mesenchymal stem cells (MSCs). The concentration ranges selected for each drug and investigational agent were based upon clinically achievable concentrations if the clinical Cmax of the agent was known.
Compounds. The drugs and investigational agents: inavolisib (NSC800729), alpelisib (NSC765974), duvelisib (NSC772469), copanlisib (NSC816437), ipatasertib (NSC767898), afuresertib (NSC778305), talazoparib (NSC767125), sapanisertib (NSC764658), selumetinib (NSC741078), tovorafenib (DAY101, NSC766906), vemurafenib (NSC761431), ravoxertinib (NSC781343), sotorasib (NSC818433), MRTX1133 (NSC 836407), abemaciclib (NSC 768073), palbociclib (NSC758247), venetoclax (NSC 766270), SY5609 (NSC837396), enzalutamide (NSC755605), and darolutamide (NSC825331), were obtained from the National Cancer Institute (NCI) Developmental Therapeutics Program Chemical Repository. The FDA-approved anticancer drug set is available from the NCI Developmental Therapeutics Program. […] The stock solutions were prepared in dimethyl sulfoxide (DMSO, Sigma-Aldrich, St. Louis, MO, cat. D2650) at 800-fold the tested concentration and stored at -70 degrees C prior to their use. All drugs and investigational agents were tested over a range starting from a high concentration at or near the clinical Cmax and decreasing in half-log increments. If the clinical Cmax for an agent had not been determined, the highest concentration tested was 10 microM.
Cell Culture. All cells were maintained in an incubator at 37 degrees C and 5% CO2 with 95% humidity. The PDC lines were cultured according to standard operating procedures established by the NCI PDMR (https://pdmr.cancer.gov/sops/default.htm). All PDCs were thawed and cultured in Matrigel-coated flasks prepared with a working solution of 1X Ham's F-12 nutrient mix, without supplementation (Invitrogen, Waltham, MA, cat. 11765054), 100 U/mL penicillin-streptomycin (Invitrogen, cat. 15140122), and 2.5% Matrigel (Corning Inc., Corning, NY, cat. 354248) for the first three passages. The 354836-022-R-J1-PDC, 475296-252-R-J1-PDC, and 997726-040-R-J2-PDC lines were cultured in 6A media, which includes advanced DMEM/F-12 (Thermo Fisher Scientific, cat. 12634028), 10 mM HEPES (Thermo Fisher Scientific, cat. 15630080), 1X GlutaMAX supplement (Thermo Fisher Scientific, cat. 35050061), 0.1 mg/mL primocin (InvivoGen, San Diego, CA, cat. ant-pm-2), 10% defined fetal bovine serum, heat inactivated (HyClone Laboratories Inc., Logan, UT, cat. SH30070.03HI), 50% L-WRN conditioned media (ATCC, cat. CRL-3276), 1.25 mM N-Acetyl-L-cysteine (Sigma-Aldrich, cat. A9165), 10 mM nicotinamide (Sigma-Aldrich, cat. N0636), 1X B-27 supplement (Thermo Fisher Scientific, cat. 17504044), 1X N-2 supplement (Thermo Fisher Scientific, cat. 17502048), and 10 microM Y-27632 dihydrochloride (Tocris Bioscience, Bristol, United Kingdom, cat. 1254). The 624824-186-R-J2-PDC line was cultured in 6C/Colon 1B media, which includes all 6A media components plus 50 ng/mL human EGF recombinant protein (Thermo Fisher Scientific, cat. PHG0311). […]

[1] = compound alone, run of 06/12/2023
[2] = compound alone, run of 06/13/2023
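Further: spheroids exposed to agents for 7 days before viability read.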
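Wherever viability, T/C is given: 100% = DMSO vehicle treated spheroids.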

| Structure (SMILES) | viability, T/C (compound 0.0316 µM) | viability, T/C (compound 0.316 µM) | viability, T/C (compound 3.16 µM) | viability, T/C (compound 10 µM) | IC50 (curve of compound) | viability, T/C (compound 0.1 µM) | viability, T/C (compound 1 µM) | further results |
| --- | --- | --- | --- | --- | --- | --- | --- | --- |
| C#Cc1c(F)ccc2cc(O)cc(-c3ncc4c(N5CC6CCC(C5)N6)nc(OCC56CCCN5CC(F)C6)nc4c3F)c12 (configuration not stated) | 94.5% [middle of 4 runs] | 97% [middle of 4 runs] | 84.7% [middle of 4 runs] | 86.3% [middle of 4 runs] | > 10 µM | – | – | – |
| C=CC(=O)N1CCN(c2nc(=O)n(-c3c(C)ccnc3C(C)C)c3nc(-c4c(O)cccc4F)c(F)cc23)C(C)C1 (configuration not stated) | – | 82.1% [middle of 4 runs] | – | 100% [middle of 4 runs] | > 10 µM | 82% [middle of 4 runs] | 99.7% [middle of 4 runs] | – |
| CC(=O)c1c(C)c2cnc(Nc3ccc(N4CCNCC4)cn3)nc2n(C2CCCC2)c1=O | – | – | – | – | > 0.1 µM | 87.5% [middle of 4 runs] | – | viability, T/C (compound 0.00316 µM): 93.5% [middle of 4 runs] |
| CC(C)NCC(C(=O)N1CCN(c2ncnc3c2C(C)CC3O)CC1)c1ccc(Cl)cc1 (configuration not stated) | – | 84.4% [middle of 4 runs] | 88.5% [middle of 4 runs] | 85.7% [middle of 4 runs] | > 10 µM | 92.5% [middle of 4 runs] | – | – |
| CC(C)n1nc(-c2ccc3oc(N)nc3c2)c2c(N)ncnc21 | 76.4% [middle of 4 runs] | – | – | – | > 0.1 µM | 79.5% [middle of 4 runs] | – | viability, T/C (compound 0.00316 µM): 79.1% [middle of 4 runs]; viability, T/C (compound 0.01 µM): 82.6% [middle of 4 runs] |
| CC(Cn1ccc(-c2ccc(C#N)c(Cl)c2)n1)NC(=O)c1cc(C(C)O)[nH]n1 (configuration not stated) | 91.5% [middle of 4 runs] | 89.7% [middle of 4 runs] | 101% [middle of 4 runs] | 106% [middle of 4 runs] | > 10 µM | – | 92.9% [middle of 4 runs] | – |
| CC(Nc1ccc2c(c1)OCCn1cc(N3C(=O)OCC3C(F)F)nc1-2)C(N)=O (configuration not stated) | 84.8% [middle of 8 runs] | 89.7% [middle of 8 runs] | – | – | – | 90.3% [middle of 8 runs] | 95.2% [middle of 8 runs] | viability, T/C (compound 0.01 µM): 95% [middle of 8 runs]; IC50 [1]: > 1 µM |
| CC(Nc1ncnc2nc[nH]c12)c1cc2cccc(Cl)c2c(=O)n1-c1ccccc1 (configuration not stated) | – | 91.6% [middle of 8 runs] | – | – | – | – | 91.4% [middle of 8 runs] | IC50 [2]: > 10 µM |
| CC1(C)CCC(CN2CCN(c3ccc(C(=O)NS(=O)(=O)c4ccc(NCC5CCOCC5)c([N+](=O)[O-])c4)c(Oc4cnc5[nH]ccc5c4)c3)CC2)=C(c2ccc(Cl)cc2)C1 | – | 80.4% [middle of 4 runs] | 67% [middle of 4 runs] | 72.2% [middle of 4 runs] | > 10 µM | 78.7% (2×) and 107% and 95.2% | – | – |
| CC1(C)CCC(Nc2ncc(C(F)(F)F)c(-c3c[nH]c4c(P(C)(C)=O)c(C#N)ccc34)n2)CN1 (configuration not stated) | – | 102% [middle of 4 runs] | 62.5% [middle of 4 runs] | 7.89% [middle of 4 runs] | 4.11 µM [middle of 4 runs] | 76.4% [middle of 4 runs] | 104% [middle of 4 runs] | – |
| CCCS(=O)(=O)Nc1ccc(F)c(C(=O)c2c[nH]c3ncc(-c4ccc(Cl)cc4)cc23)c1F | 90.4% [middle of 4 runs] | 88% [middle of 4 runs] | 122% [middle of 4 runs] | 52.3% [middle of 4 runs] | 9.53 µM and > 10 µM and 9.39 µM | 90.6% [middle of 4 runs] | – | – |
| CCN1CCN(Cc2ccc(Nc3ncc(F)c(-c4cc(F)c5nc(C)n(C(C)C)c5c4)n3)nc2)CC1 | 86.1% [middle of 4 runs] | 93.5% [middle of 4 runs] | – | – | > 1 µM | 93.7% [middle of 4 runs] | 102% [middle of 4 runs] | – |
| CNC(=O)c1ccc(N2C(=S)N(c3ccc(C#N)c(C(F)(F)F)c3)C(=O)C2(C)C)cc1F | – | – | – | – | > 10 µM | – | – | – |
| COc1c(OCCCN2CCOCC2)ccc2c3n(c(=NC(=O)c4cnc(N)nc4)nc12)CCN3 | 88.2% [middle of 8 runs] | 67.3% [middle of 8 runs] | – | – | – | 75.5% [middle of 8 runs] | 65.1% [middle of 8 runs] | viability, T/C (compound 0.01 µM): 91.7% [middle of 8 runs]; IC50 [2]: > 1 µM |
| C[C@@H](NC(=O)c1ncnc(N)c1Cl)c1ncc(C(=O)Nc2cc(C(F)(F)F)c(Cl)cn2)s1 | – | – | 68% [middle of 4 runs] | – | > 10 µM | – | 81.6% [middle of 4 runs] | – |
| Cc1nc(NC(=O)N2CCCC2C(N)=O)sc1-c1ccnc(C(C)(C)C(F)(F)F)c1 (configuration not stated) | – | – | – | 80.8% [middle of 8 runs] | – | 83.4% [middle of 8 runs] | – | IC50 [1]: > 10 µM |
| Cn1cnc2c(F)c(Nc3ccc(Br)cc3Cl)c(C(=O)NOCCO)cc21 | – | – | – | – | > 3 µM | – | – | viability, T/C (compound 0.00949 µM): 85.4% [middle of 4 runs]; viability, T/C (compound 0.949 µM): 79.5% [middle of 4 runs] |
| Cn1ncc(Cl)c1-c1cc(C(=O)NC(CN)Cc2cccc(F)c2)sc1Cl (configuration not stated) | – | 74.5% [middle of 4 runs] | 68.2% [middle of 4 runs] | 59.2% [middle of 4 runs] | > 10 µM | 79.8% [middle of 4 runs] | 89.4% [middle of 4 runs] | – |
| Cn1nccc1Nc1nccc(-c2ccn(C(CO)c3ccc(Cl)c(F)c3)c(=O)c2)n1 (configuration not stated) | 88.9% [middle of 4 runs] | 72.8% [middle of 4 runs] | 91.2% [middle of 4 runs] | – | > 10 µM | – | 94% [middle of 4 runs] | – |
| Cn1ncnc1[C@H]1c2n[nH]c(=O)c3cc(F)cc(c23)N[C@@H]1c1ccc(F)cc1 | 103% [middle of 4 runs] | – | – | – | > 0.1 µM | 89.3% [middle of 4 runs] | – | viability, T/C (compound 0.000316 µM): 99.1% [middle of 4 runs]; viability, T/C (compound 0.00316 µM): 90.5% [middle of 4 runs] |

Reference: PubChem BioAssay AID1963975 (Molecular Pharmacology Branch, DTP, NCI, 2024)
